From PMC2753520 (Journal of medicinal chemistry, 2009)

Experiment: PAMPA passive permeability
Type: in vitro ADME
Details: pH 7.4

CCCCCCOc1ccc(C(=O)CCN(C)C)c2ccccc12 [13{1}]
Permeability (PAMPA, Pe): high permeability
